Reference: patent US20260001893A1, “SMALL MOLECULE MODULATORS OF STAT6” (Gilead Sciences, Inc., priority 2024, published 2026)

How the values were obtained:
[1] = system: Eotaxin-3 (CCL26) release in human whole blood stimulated with IL-4; assay: Human whole blood eotaxin-3 assay (IL-4 stimulated eotaxin-3 release); format: cell-based; settings: Homo sapiens, 48 h, human whole blood stimulated with recombinant human IL-4, 48 h, geometric mean; for EC50: inhibition of eotaxin-3 release, given for test compounds with >80% Emax
Procedure, shortened: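 Lithium-heparin human whole blood was preincubated with compound (4-fold serial dilution, 0.5% DMSO final) for 2 h at 37° C, then stimulated with recombinant human IL-4 at […] final for 48 h. Eotaxin-3 (CCL26) in the supernatant was measured by MSD immunoassay.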

[2] = molecular target: T1, Human STAT6 (truncated, aa122-658, with N-terminal His-tag) (Homo sapiens, UniProt P42226); assay: Surface plasmon resonance (SPR) assay, binding to human STAT6; settings: Biacore 8K, 25° C, immobilized human STAT6 on CM5 chip, multi-cycle kinetics; geometric mean
T1 construct: Human STAT6 (truncated, aa122-658, with N-terminal His-tag, expressed in insect cells); His-tag (N); made in house; host or cells: insect cells
T1 sequence (P42226 122-658): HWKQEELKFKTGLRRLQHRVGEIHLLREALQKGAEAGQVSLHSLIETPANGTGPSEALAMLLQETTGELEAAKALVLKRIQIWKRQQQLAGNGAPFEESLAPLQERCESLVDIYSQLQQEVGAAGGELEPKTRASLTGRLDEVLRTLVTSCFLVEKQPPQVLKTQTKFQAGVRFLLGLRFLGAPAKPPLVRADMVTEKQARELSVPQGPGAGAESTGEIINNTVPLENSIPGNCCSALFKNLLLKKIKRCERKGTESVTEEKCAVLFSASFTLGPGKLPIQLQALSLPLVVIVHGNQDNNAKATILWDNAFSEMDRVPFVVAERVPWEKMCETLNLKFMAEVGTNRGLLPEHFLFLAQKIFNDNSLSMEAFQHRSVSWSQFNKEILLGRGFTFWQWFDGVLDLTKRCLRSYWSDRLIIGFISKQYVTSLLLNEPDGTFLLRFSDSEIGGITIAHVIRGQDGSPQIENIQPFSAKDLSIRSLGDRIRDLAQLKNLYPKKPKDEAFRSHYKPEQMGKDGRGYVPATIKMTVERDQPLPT
Procedure, shortened: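 Truncated STAT6 (aa122-658, N-His, insect-cell expressed) was amine-coupled to a CM5 chip, and compounds were run as multi-cycle kinetics at 25 °C in PBS-P+ with 2% DMSO (60 s contact, up to 300 s dissociation). KD came from steady-state isotherms at a late report point, fitted with free and with fixed theoretical Rmax (1:1).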

Compound | EC50 [1] [nM] | Kd [2] [nM] | Emax ([1]; given for test compounds with <80% Emax) [%]
CNc1ccn(-c2ccnc3c2cc(CN2CC=C(c4ccc(C(=O)N(C)C)cc4C)CC2)n3C)c(=O)c1 [Example 1m9, N,N,3-Trimethyl-4-(1-((1-methyl-4-(4-(methylamino)-2-oxopyridin-1 (2H)-yl)-1H-pyrrolo[2,3-b]pyridin-2-yl)methyl)-1,2,3,6-tetrahydropyridin-4-yl)benzamide] | 32.1 | 11.8 | 
[2H]C([2H])([2H])N(C(=O)c1ccc(C2=CCN(Cc3cc4c(-n5ccc(NC)cc5=O)ccnc4n3C)CC2)c(C)c1)C([2H])([2H])[2H] [Example 1m10, 3-Methyl-N,N-bis(methyl-d3)-4-(1-((1-methyl-4-(4-(methylamino)-2-oxopyridin-1 (2H)-yl)-1H-pyrrolo[2,3-b]pyridin-2-yl)methyl)-1,2,3,6-tetrahydropyridin-4-yl)benzamide] | 37.4 | 9.57 | 
CNc1ccn(-c2ccnc3c2cc(CN2CC=C(c4c(C)cc(C(=O)N(C)C)cc4C)CC2)n3C)c(=O)c1 [Example 1m12, N,N,3,5-Tetramethyl-4-(1-((1-methyl-4-(4-(methylamino)-2-oxopyridin-1 (2H)-yl)-1H-pyrrolo[2,3-b]pyridin-2-yl)methyl)-1,2,3,6-tetrahydropyridin-4-yl)benzamide] | 15.6 | 8.66 | 
CNc1ccn(-c2ccnc3c2cc(CN2CCN(c4ccc(C(=O)N(C)C)cc4C)C[C@@H]2C)n3C)c(=O)c1 [Example 1m18, (S)—N,N,3-Trimethyl-4-(3-methyl-4-((1-methyl-4-(4-(methylamino)-2-oxopyridin-1 (2H)-yl)-1H-pyrrolo[2,3-b]pyridin-2-yl)methyl)piperazin-1-yl)benzamide] | 53.6 | 18.9 | 
CNc1ccn(-c2ccnc3c2cc(CN2CCN(c4ccc(C(=O)N(C)C)cc4C)C[C@H]2C)n3C)c(=O)c1 [Example 1m19, (R)—N,N,3-Trimethyl-4-(3-methyl-4-((1-methyl-4-(4-(methylamino)-2-oxopyridin-1 (2H)-yl)-1H-pyrrolo[2,3-b]pyridin-2-yl)methyl)piperazin-1-yl)benzamide] | 122 | 23.5 | 
CNc1ccn(-c2ccnc3c2cc(CN2CC=C(c4ccc(C(=O)N(C)C)cc4)CC2)n3C)c(=O)c1 [Example 1m35, N,N-Dimethyl-4-(1-((1-methyl-4-(4-(methylamino)-2-oxopyridin-1 (2H)-yl)-1H-pyrrolo[2,3-b]pyridin-2-yl)methyl)-1,2,3,6-tetrahydropyridin-4-yl)benzamide] |  | 35 | 40 to 50
CNc1ccn(-c2ccnc3c2cc(CN2CC=C(c4ccc(C(=O)N(C)C)cc4OC)CC2)n3C)c(=O)c1 [Example 1m54, 3-Methoxy-N,N-dimethyl-4-(1-((1-methyl-4-(4-(methylamino)-2-oxopyridin-1 (2H)-yl)-1H-pyrrolo[2,3-b]pyridin-2-yl)methyl)-1,2,3,6-tetrahydropyridin-4-yl)benzamide] | 190 | 18.5 | 
CNc1ccn(-c2ccnc3c2cc(CN2CC=C(c4ccc(C(=O)N(C)C)cc4C(F)(F)F)CC2)n3C)c(=O)c1 [Example 1m59, N,N-Dimethyl-4-(1-((1-methyl-4-(4-(methylamino)-2-oxopyridin-1 (2H)-yl)-1H-pyrrolo[2,3-b]pyridin-2-yl)methyl)-1,2,3,6-tetrahydropyridin-4-yl)-3-(trifluoromethyl)benzamide] | 96.1 | 14.3 | 
CNc1ccn(-c2ccnc3c2cc(CN2CC=C(c4ccc(C(=O)N(C)C)cc4Cl)CC2)n3C)c(=O)c1 [Example 1m64, 3-Chloro-N,N-dimethyl-4-[1-[[1-methyl-4-[4-(methylamino)-2-oxo-1-pyridyl]pyrrolo[2,3-b]pyridin-2-yl]methyl]-3,6-dihydro-2H-pyridin-4-yl]benzamide] | 170 | 12 | 
CNc1ccn(-c2ccnc3c2cc(CN2CC=C(c4ncc(C(=O)N(C)C)cc4F)CC2)n3C)c(=O)c1 [Example 1m67, 5-Fluoro-N,N-dimethyl-6-[1-[[1-methyl-4-[4-(methylamino)-2-oxo-1-pyridyl]pyrrolo[2,3-b]pyridin-2-yl]methyl]-3,6-dihydro-2H-pyridin-4-yl]pyridine-3-carboxamide] | 80.1 | 33.4 | 
